Laboratory results: patent US12016918B2, “Peptide-containing adjuvant compounds having peg spacers” (UNIVERSITEIT LEIDEN, priority 2017, dated 2024)
Non-standard residues stand in square brackets, D forms with d. *: point of attachment. O(CH2CH2O)3CH2C(O) = O=C(COCCOCCOCCO)*; AEEEA = NCCOCCOCCOCC(=O)O; Carbamoyl = NC(=O)*; Cy5 = Cy5 label

Tests used:
Assay type in all cases: cell-based
[1] = tested on: human monocyte-derived dendritic cells; test: Activation of human dendritic cells (IL-12 cytokine secretion by ELISA); details: human DCs stimulated with titrated amounts of compound; IL-12 by ELISA; FIG. 2B/3B
Excerpt: One representative from three independent experiments is shown (error bars represent SD);
DCs were stimulated with titrated amounts of test compounds or controls. Supernatants were harvested and analyzed for IL-12 cytokine secretion by ELISA as in FIG. 2B;

human TLR2 = target: T1, human TLR2 (Homo sapiens, UniProt O60603); test: HEK293-TLR2 activation assay (IL-8 production); details: for activation of TLR2 HEK cells (human IL-8 production via TLR-2): HEK TLR-2 cells incubated with titrated amounts of compound, IL-8 in supernatant by ELISA, FIG. 2A/3A; for TLR2-mediated bio-activity compared to reference ligands: compared to compound 1 and 5 and chirally pure Pam3CSK4 (Pam-R), HEK TLR2 cells and human DC, FIG. 2
T1 construct: host or cells: HEK293
Protocol: (a) HEK TLR-2 cells were incubated with titrated amounts of test compounds or controls for 24 h;
The HEK-TLR2 reporter cell line and HEK293 cells stably transfected with human TLR2 were obtained from Invivogen, Toulouse, France. HEK-TLR2 cells were cultured in complete IMDM medium, supplemented with 500 μg/mL Geneticin. Test compounds were titrated in a flat-bottom 96-well plate (Corning, Amsterdam, The Netherlands) in complete IMDM medium to which 20 000 HEK-TLR2 cells per well were added. After 48 h of incubation at 37° C., the supernatant was taken from the wells for ELISA analysis (BioLegend, San Diego, CA) to determine the amount of IL-8 that was produced as a measure for TLR2-mediated activation.

mouse D1-cells = test: Uptake by mouse D1-cells (confocal laser scanning microscopy); details: 1 μM, 15 min incubation; Cy5-labeled conjugate; endo-lysosomal compartments; FIG. 4B
Protocol: The cells were incubated for 15 min with compound 10 (1 μM). The uptake and localization of the compounds were analyzed with confocal laser scanning microscopy. The images are representative for multiple cells in at least 3 experiments.

human moDC = test: Uptake by human moDC (confocal laser scanning microscopy); details: 1 μM, 15 min incubation; Cy5-labeled conjugate; endo-lysosomal compartments; FIG. 4A
Protocol: The cells were incubated for 15 min with compound 10 (1 μM). The uptake and localization of the compounds were analyzed with confocal laser scanning microscopy. The images are representative for multiple cells in at least 3 experiments; and […]

T1 sequence (O60603 21-784): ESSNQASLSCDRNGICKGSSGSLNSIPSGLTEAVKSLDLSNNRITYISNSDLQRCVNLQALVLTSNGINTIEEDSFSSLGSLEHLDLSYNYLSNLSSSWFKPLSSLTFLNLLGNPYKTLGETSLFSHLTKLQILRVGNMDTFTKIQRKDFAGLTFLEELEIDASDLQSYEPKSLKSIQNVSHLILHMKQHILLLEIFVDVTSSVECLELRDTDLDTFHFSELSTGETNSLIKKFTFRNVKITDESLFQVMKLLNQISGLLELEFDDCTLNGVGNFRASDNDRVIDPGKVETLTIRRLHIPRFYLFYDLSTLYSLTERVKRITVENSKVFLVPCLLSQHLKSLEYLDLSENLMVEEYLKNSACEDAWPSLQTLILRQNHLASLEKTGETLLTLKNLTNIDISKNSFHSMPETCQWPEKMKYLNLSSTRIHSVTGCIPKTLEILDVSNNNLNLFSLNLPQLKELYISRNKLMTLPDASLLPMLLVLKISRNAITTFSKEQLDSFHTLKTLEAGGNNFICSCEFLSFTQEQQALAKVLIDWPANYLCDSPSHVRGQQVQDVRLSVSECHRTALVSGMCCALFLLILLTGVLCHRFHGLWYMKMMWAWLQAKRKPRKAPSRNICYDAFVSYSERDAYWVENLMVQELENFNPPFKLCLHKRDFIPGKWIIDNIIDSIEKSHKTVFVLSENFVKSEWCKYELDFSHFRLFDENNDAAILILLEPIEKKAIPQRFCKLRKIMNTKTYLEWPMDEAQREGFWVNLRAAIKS

Compound	activation of human monocyte-derived dendritic cells (IL-12 secretion) [1]	activation of TLR2 HEK cells (human IL-8 production via TLR-2) (human TLR2)	TLR2-mediated bio-activity compared to reference ligands (human TLR2)	dendritic cell uptake, murine (mouse D1-cells)	dendritic cell uptake, human (human moDC)
CCCCCCCCCCCCCCCC(=O)OCCSCC[C@H](NC(N)=O)C(=O)N[C@@H](CO)C(=O)OCCOCCOCCOCC(=O)O [Compound 6, (14S,17S)-14-(hydroxymethyl)-13,16,24-trioxo-17-ureido-3,6,9,12,23-pentaoxa-20-thia-15-azanonatriacontanoic acid]	excellent capacity to activate	excellent capacity to activate	improved	–	–
CCCCCCCCCCCCCCCC(=O)OCCSCC[C@H](NC(N)=O)C(=O)N[C@@H](CO)C(=O)NCCOCCOCCOCC(=O)O [Compound 7, (14S,17 S)-14-(hydroxymethyl)-13,16,24-trioxo-17-ureido-3,6,9,23-tetraoxa-20-thia-12,15-diazanonatriacontanoic acid]	excellent capacity to activate	excellent capacity to activate	improved	–	–
NH2C(O)NH-Cys(EtOC(O)C15H31)-Ser(OH)—NH(CH2CH2O)3CH2C(O)NH-DEVSGLEQLESIINFEK(^Cy5)L-OH ({Carbamoyl-Cys(EtOC(O)C15H31)}-S[AEEEA]DEVSGLEQLESIINFEK(Cy5)L-OH) [Compound 11, Cy5 fluorophore-labeled conjugate from 28]	intact bio-activity	intact bio-activity	–	–	–
NH2C(O)NH-Cys(EtOC(O)C15H31)-Ser(OH)—NH(CH2CH2O)3CH2C(O)NH-DEVSGLEQLESIINFEKL-OH ({Carbamoyl-Cys(EtOC(O)C15H31)}-S[AEEEA]DEVSGLEQLESIINFEKL-OH) [Compound 9]	intact bio-activity	intact bio-activity	–	–	–
NH2C(O)NH-Cys(EtOC(O)C15H31)-Ser(OH)—O(CH2CH2O)3CH2C(O)NH-DEVSGLEQLESIINFEK(^Cy5)L-OH ({Carbamoyl-Cys(EtOC(O)C15H31)-Ser-O(CH2CH2O)3CH2C(O)}-DEVSGLEQLESIINFEK(Cy5)L-OH) [Compound 10, Cy5 fluorophore-labeled conjugate from 27]	intact bio-activity	intact bio-activity	–	efficient engulfment	efficient engulfment
NH2C(O)NH-Cys(EtOC(O)C15H31)-Ser(OH)—O(CH2CH2O)3CH2C(O)NH-DEVSGLEQLESIINFEKL-OH ({Carbamoyl-Cys(EtOC(O)C15H31)-Ser-O(CH2CH2O)3CH2C(O)}-DEVSGLEQLESIINFEKL-OH) [Compound 8]	intact bio-activity	intact bio-activity	–	–	–
